Laboratory results: ChEMBL document CHEMBL1155608, “Malyngamides O and P from the sea hare Stylocheilus longicauda” (J Nat Prod, 2000)

Legend:
Type in all cases: functional, cell-based
HT-29 = assay: Cytotoxicity against human HT29 cells
A549 = assay: Cytotoxicity against human A549 cells
P388 = assay: Cytotoxicity against mouse P388 cells

Measured: IC50

CCCCCCC[C@@H](C/C=C/CCC(=O)N(C)C/C(=C\Cl)C/C(=C\C(=O)OC)OC)OC [MALYNGAMIDE O]
2 µg/mL: HT-29 | A549 | P388
